In assay [1] the target is His-tagged human recombinant kinase full-length Akt1 (Homo sapiens (Human), UniProt P31749). Put plainly: Akt1 kinase assay (TR-FRET). In kind it is biochemical. As to conditions: 10 μM ATP; median. An excerpt: Akt1 inhibitory activity of compounds of the present invention was quantified employing the Akt1 TR-FRET assay as described in the following paragraphs. His-tagged human recombinant kinase full-length Akt1 expressed in insect cells was purchased form Invitrogen (part number PV 3599). As substrate for the kinase reaction the biotinylated peptide biotin-Ahx-[…] (C-terminus in amide form) was used which can be purchased e.g. from the company Biosynthan GmbH (Berlin-Buch, Germany).
(§1) For the assay 50 nl of a 100 fold concentrated solution of the test compound in DMSO was pipetted into a black low volume 384 well microtiter plate (Greiner Bio-One, Frickenhausen, Germany), 2 μl of a solution of Akt1 in assay buffer [50 mM TRIS/HCl pH 7.5, 5 mM MgCl2, 1 mM dithiothreitol, 0.02% (v/v) Triton X-100 (Sigma)] were added and the mixture was incubated for 15 min at 22° C. to allow pre-binding of the test compounds to the enzyme before the start of the kinase reaction. Then the kinase reaction was started by the addition of 3 μl of a solution of adenosine-tri-phosphate (ATP, 16.7 μM=>final conc. in the 5 μl assay volume is 10 μM) and substrate (1.67 μM=>final conc. in the 5 μl assay volume is 1 μM) in assay buffer and the resulting mixture was incubated for a reaction time of 60 min at 22° C. The concentration of Akt1 in the assay was adjusted depending of the activity of the enzyme lot and was chosen appropriate to have the assay in the linear range, typical enzyme concentrations were in the range of about 0.05 ng/μl (final conc. in the 5 μl assay volume).
The reaction was stopped by the addition of 5 μl of a solution of HTRF detection reagents (200 nM streptavidine-XL665 [Cisbio] and 1.5 nM anti-phosho-Serine antibody [Millipore, cat. #35-001] and 0.75 nM LANCE Eu-W 1024 labeled anti-mouse IgG antibody [Perkin Elmer]) in an aqueous EDTA-solution (100 mM EDTA, 0.1% (w/v) bovine serum albumin in 50 mM HEPES/NaOH pH 7.5).
(§2) The resulting mixture was incubated 1 h at 22° C. to allow the binding of the biotinylated phosphorylated peptide to the streptavidine-XL665 and the antibodies. Subsequently the amount of phosphorylated substrate was evaluated by measurement of the resonance energy transfer from the anti-mouse-IgG-Eu-Chelate to the streptavidine-XL665. Therefore, the fluorescence emissions at 620 nm and 665 nm after excitation at 350 nm was measured in a HTRF reader, e.g. a Rubystar (BMG Labtechnologies, Offenburg, Germany) or a Viewlux (Perkin-Elmer). The ratio of the emissions at 665 nm and at […] was taken as the measure for the amount of phosphorylated substrate. The data were normalised (enzyme reaction without inhibitor=0% inhibition, all other assay components but no enzyme=100% inhibition).
For orientation: TR-FRET usually uses a lanthanide donor and a delayed reading to cut background.

In assay [2] the target is His-tagged human recombinant kinase full-length Akt2 (Homo sapiens (Human), UniProt P31751). Put plainly: Akt2 kinase assay (TR-FRET). In kind it is biochemical. As to conditions: 10 μM ATP; median.
From the text: Akt2 inhibitory activity of compounds of the present invention was quantified employing the Akt2 TR-FRET assay as described in the following paragraphs.
His-tagged human recombinant kinase full-length Akt2 expressed in insect cells and activated by PDK1 was purchased form Invitrogen (part number PV 3975). As substrate for the kinase reaction the biotinylated peptide biotin-Ahx-[…] (C-terminus in amide form) was used which can be purchased e.g. from the company Biosynthan GmbH (Berlin-Buch, Germany).
as §1, with “Akt2” for “Akt1”, “0.2” for “0.05”
The reaction was stopped by the addition of 5 μl of a solution of HTRF detection reagents (200 nM streptavidine-XL665 [Cisbio] and 1.5 nM anti-phosho-Serine antibody [Millipore, cat. #35-001] and 0.75 nM LANCE Eu-W 1024 labeled anti-mouse IgG antibody [Perkin Elmer]) in an aqueous EDTA-solution (100 mM EDTA, 0.1%/w/v\ bovine serum albumin in 50 mM HEPES/NaOH pH 7.5).
as §2, with “TR-FRET” for “HTRF”

Assay [3] concerns phospho-AKT at S473 in KPL4 breast tumour cell line. Put plainly: Cellular p-AKT1/2/3-S473 assay. In kind it is cell-based. The note with it: KPL4 cells, 2 hours treatment; median; read-out: pAKT-S743 median IC50. How it is done: The molecular mechanism of action was investigated in a set of experiments to assess the inhibition of the PI3K-AKT-mTOR pathway in responsive cell lines such as KPL4 breast tumour cell line (PIK3CAH1047R, HER2O/E and hormone independent). The phospho-substrates of PI3K-AKT-mTOR axis were used as the read-outs to reflect pathway inhibition. Cells were seeded at 60-80% confluency per well in 96-well cell culture plates. After overnight incubation at 37° C. 5% CO2, cells were treated with compounds and vehicle at 37° C. for 2 hours. […] All measurements where at least done in duplicates and confirmed by independent repetition.
Alternatively pAKT-S473 was measured using the “Akt Duplex” of the MULTI-SPOT® Assay System (Fa. Meso Scale Discovery, Cat# N41100B-1) following manufacturers instructions. Each assay used 20 μg of protein extract and measured total AKT and p-AKT content simultaneously in one well. All measurements where at least done in duplicates and confirmed by independent repetition. Values for P-AKT are expressed as percentage of P-AKT level compared to total-AKT content of the extracts.

A further assay relates to KPL-4 cells. Put plainly: Tumor cell proliferation assay (CellTiter-Glo). It counts as cell-based. The note with it: KPL4; 72 h drug exposure. How it is done: Compounds were tested in a cell-based assay that measures the capacity of the compounds to inhibit tumour cell proliferation following a 72 h drug exposure. Cell viability is determined using CellTiter-Glow® (CTG, Promega, cat# G757112/3). The CellTiter-Glo® Luminescent Cell Viability Assay is a homogeneous method to determine the number of viable cells in culture. Detection is based on using the luciferase reaction to measure the amount of ATP from viable cells. The amount of ATP in cells correlates with cell viability. Within minutes after a loss of membrane integrity, cells lose the ability to synthesize ATP, and endogenous ATPases destroy any remaining ATP; thus the levels of ATP fall precipitously.
Cells were plated at 3000-5000 cells/well (depending on the cell lines) in 90 μL growth medium on MTPs (Corning; #3603, black plate, clear flat bottom). For each cell line assayed, cells were plated onto a separate plate for determination of […] at t=0 hour and t=72 hour time points. Following overnight incubation at 37° C., chemiluminescence values for the t=0 samples were determined after adding 10 μl medium and 100 μl CTG solution according to manufacture protocol. Plates for the t=72 hour time points were treated with compounds diluted into growth medium at ten times final concentration added in 10 μL to the cell culture plate. Cells were then incubated for 72 hours at 37° C. Chemiluminescence values for the t=72 hour samples were determined. For data analysis, briefly, data from 24 h plate where used to reflect 100% inhibition of growth (“Ci”) and DMSO control for uninhibited growth (“C0”) and analyzed using MTS software package for IC50 and Hill coefficient. Experiments were controlled using a reference compound as standard.
A general note: Cellular ATP, detected with luciferase, serves as a proxy for viable cell number.

Chain of His-tagged human recombinant kinase full-length Akt2 (P31751 whole entry): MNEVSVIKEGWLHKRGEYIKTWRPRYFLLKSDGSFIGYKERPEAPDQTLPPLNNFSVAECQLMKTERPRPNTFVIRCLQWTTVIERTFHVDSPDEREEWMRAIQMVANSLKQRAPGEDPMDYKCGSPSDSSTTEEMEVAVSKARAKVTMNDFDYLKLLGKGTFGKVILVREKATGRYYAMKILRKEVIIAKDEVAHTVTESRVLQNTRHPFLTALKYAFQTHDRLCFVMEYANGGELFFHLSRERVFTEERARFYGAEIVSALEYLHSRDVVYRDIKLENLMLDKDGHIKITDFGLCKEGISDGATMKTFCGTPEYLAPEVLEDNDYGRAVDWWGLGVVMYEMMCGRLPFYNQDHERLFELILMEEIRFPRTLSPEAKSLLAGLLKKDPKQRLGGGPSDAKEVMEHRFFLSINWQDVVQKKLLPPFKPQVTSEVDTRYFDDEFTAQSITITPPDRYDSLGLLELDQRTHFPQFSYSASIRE
Chain of His-tagged human recombinant kinase full-length Akt1 (P31749 whole entry): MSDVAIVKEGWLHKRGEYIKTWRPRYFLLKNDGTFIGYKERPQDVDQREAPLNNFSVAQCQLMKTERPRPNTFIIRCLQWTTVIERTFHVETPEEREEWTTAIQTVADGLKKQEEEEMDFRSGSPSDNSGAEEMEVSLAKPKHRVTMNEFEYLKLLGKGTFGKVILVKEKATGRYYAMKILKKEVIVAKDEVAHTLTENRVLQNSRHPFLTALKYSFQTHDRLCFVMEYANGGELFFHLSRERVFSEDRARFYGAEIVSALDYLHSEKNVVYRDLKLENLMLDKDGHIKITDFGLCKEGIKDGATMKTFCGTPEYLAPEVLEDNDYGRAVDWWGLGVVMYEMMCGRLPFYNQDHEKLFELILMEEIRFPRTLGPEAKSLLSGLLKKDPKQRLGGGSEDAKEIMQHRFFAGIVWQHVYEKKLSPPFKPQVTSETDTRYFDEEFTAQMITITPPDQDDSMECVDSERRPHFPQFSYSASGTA

As a reminder, the IC50 is the concentration needed to halve the response being measured. `NC1(c2ccc(-c3nn4c(-c5ccc(O)nc5)cnc4cc3-c3ccccc3)cc2)CCC1` [Example 4-13, 5-{6-[4-(1-Amino-cyclobutyl)-phenyl]-7-phenyl-imidazo[1,2-b]pyridazin-3-yl}-pyridin-2-ol]: the IC50 in assay [1] was 0.146 µM; in assay [2], 0.431 µM; in assay [3], 0.16 µM; with KPL-4 cells, 3.36 µM.

Consider `COC(=O)c1ccc(-c2cnc3cc(-c4ccccc4)c(-c4ccc(C5(N)CCC5)cc4)nn23)cn1` [Example 4-14, 5-{6-[4-(1-Amino-cyclobutyl)-phenyl]-7-phenyl-imidazo[1,2-b]pyridazin-3-yl}-pyridine-2-carboxylic acid methyl ester], for which the IC50 in assay [1] is 0.019 µM; in assay [2] it was 0.115 µM; in assay [3], 0.92 µM; with KPL-4 cells it was 6.02 µM.

As for `CCOC(=O)c1cncc(-c2cnc3cc(-c4ccccc4)c(-c4ccc(C5(N)CCC5)cc4)nn23)c1` [Example 4-17, 5-{6-[4-(1-Amino-cyclobutyl)-phenyl]-7-phenyl-imidazo[1,2-b]pyridazin-3-yl}-nicotinic acid ethyl ester], the IC50 in assay [1] was found to be 0.007 µM; in assay [2], 0.11 µM; in assay [3], 0.06 µM; in the assay with KPL-4 cells it was 6.2 µM.

As for `Cc1nc2cc(-c3ccccc3)c(-c3ccc(C4(N)CCC4)cc3)nn2c1-c1cccc(C(N)=O)c1` [Example 5-0, 3-{6-[4-(1-Amino-cyclobutyl)-phenyl]-2-methyl-7-phenyl-imidazo[1,2-b]pyridazin-3-yl}-benzamide], the IC50 in assay [1] was 15 µM; in assay [2], 16.8 µM; in assay [3], 10 µM; with KPL-4 cells it was 3.85 µM.

`Cc1nc2cc(-c3ccccc3)c(-c3ccc(C4(N)CCC4)cc3)nn2c1-c1ccc(F)c(CO)c1` [Example 5-1, (5-{6-[4-(1-Amino-cyclobutyl)-phenyl]-2-methyl-7-phenyl-imidazo[1,2-b]pyridazin-3-yl}-2-fluorophenyl)-methanol]: the IC50 in assay [1] turned out to be 10.1 µM; in assay [2], 16.7 µM; in assay [3], 10 µM; in the assay on KPL-4 cells it was 2.11 µM.

Take `Cc1nc2cc(-c3ccccc3)c(-c3ccc(C4(N)CCC4)cc3)nn2c1-c1ccc(F)cc1` [Example 5-3, 1-{4-[3-(4-Fluorophenyl)-2-methyl-7-phenyl-imidazo[1,2-b]pyridazin-6-yl]-phenyl}-cyclobutylamine]: the IC50 turned out to be 4.43 µM in assay [1], 5.11 µM in assay [2], 9.17 µM in assay [3] and 2.28 µM in the assay with KPL-4 cells.

Turning to `Cc1nc2cc(-c3ccccc3)c(-c3ccc(C4(N)CCC4)cc3)nn2c1-c1ccc(C(N)=O)cc1` [Example 5-4, 4-{6-[4-(1-Amino-cyclobutyl)-phenyl]-2-methyl-7-phenyl-imidazol[1,2-b]pyridazin-3-yl}-benzamide], the IC50 in assay [1] came to 12.1 µM; in assay [2] it was 4.82 µM; in assay [3], 10 µM; in the assay on KPL-4 cells it was 2.38 µM.

Turning to `Cc1nc2cc(-c3ccccc3)c(-c3ccc(C4(N)CCC4)cc3)nn2c1-c1ccn[nH]1` [Example 5-5, 1-{4-[2-Methyl-7-phenyl-3-(2H-pyrazol-3-yl)-imidazo[1,2-b]pyridazin-6-yl]-phenyl}-cyclobutylamine], the IC50 in assay [1] amounted to 2.73 µM; in assay [2], 5.23 µM; in assay [3] it was 4.11 µM; with KPL-4 cells, 3.69 µM.

In the case of `Cc1cc(-c2c(C)nc3cc(-c4ccccc4)c(-c4ccc(C5(N)CCC5)cc4)nn23)[nH]n1` [Example 5-6, 1-{4-[2-Methyl-7-phenyl-3-(5-methyl-2H-pyrazol-3-yl)-imidazo[1,2-b]pyridazin-6-yl]-phenyl}-cyclobutylamine], the IC50 in assay [1] came to 14.9 µM; in assay [2] it was 17.2 µM; in assay [3], 10 µM; in the assay on KPL-4 cells, 9.22 µM.

For `NC1(c2ccc(-c3nn4c(-c5ccc(F)cc5)c(Br)nc4cc3-c3ccccc3)cc2)CCC1` [Example 6-0, 1-{4-[2-Bromo-3-(4-fluorophenyl)-7-phenyl-imidazo[1,2-b]pyridazin-6-yl]-phenyl}-cyclobutylamine], the IC50 is 0.068 µM in assay [1], 0.041 µM in assay [2], 0.41 µM in assay [3] and 1.89 µM in the assay on KPL-4 cells.
